# The supplement of paper PMC10290057
# Where “and” joins values, the source holds several entries; their conditions need not be identical. Identical values can stand only once. Counter-ions that a name gives are not always drawn.
# System: HCT116
# Assay: efficacy (fitted maximal change in viability relative to DMSO control); higher = less cytotoxic (negative = loss of viability)
# Conditions: 48 h
# 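Further: Luminescence-based viability readout, five doses per compound, normalized against on-plate DMSO and empty-well controls, followed by dose-response curve fitting for every drug.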
row,SMILES,efficacy
1,CC/C(=C(/c1ccc(O)cc1)c1ccc(OCCNC)cc1)c1ccccc1 [Endoxifen],-71.8%
2,CC(C[N+](C)(C)C)OC(N)=O (stereo not drawn) [Bethanechol chloride],-25.8%
3,CNc1nc(C)nc(N[C@H]2CCC[C@@H](C(=O)NCc3ccc(C#N)cc3C(F)(F)F)C2)n1,-20.5%
4,CN1CC(=O)\N=C1\NC(=O)NC2=CC(=CC=C2)Cl [Fenobam],5.7%
5,Cc1[nH]nc(C(F)(F)F)c1Cc1sc2c(c1C(=O)N1C[C@](C)(O)CO1)c(=O)n(C)c(=O)n2C(C)C [AZD-3965],-11.2%
6,O=C(Nc1ccccc1)Nc1ccc(-c2ccc(C(=O)[C@@H]3CCC[C@H]3C(=O)O)cc2)cc1,-8.51%
7,N#CN1CCC[C@@H](n2nc(-c3ccc(Oc4ccc(F)cc4F)cc3)c(C(N)=O)c2N)C1,-38.1%
8,CC(C)(C)NCC(O)c1ccc(O)c(CO)c1 (stereo not drawn) [Salbutamol sulfate],-14.1%
9,Cc1ccc(C)c(OCCCC(C)(C)C(=O)O)c1 [Gemfibrozil],-13.1%
10,COc1ccc(CCN2CCN(CCCc3ccccc3)CC2)cc1OC [Cutamesine hydrochloride],-28.5%
11,N#CC1(c2ccc(NC(=O)c3cccnc3NCc3ccncc3)cc2)CCCC1 [Apatinib],-32.7%
12,Cc1nnc(C(C)C)n1C1CC2CCC(C1)N2CC[C@H](NC(=O)C1CCC(F)(F)CC1)c1ccccc1 (stereo partly drawn) [Maraviroc],-6.73%
13,C[S+](=O)([O-])c1ccc(-c2cnc(N)c(C(=O)Nc3ccccc3)n2)cc1 [VE-821],-26.1%
14,CN1CCC(=C2c3ccccc3CC(=O)c3sccc32)CC1 [Ketotifen],-39.1%
15,NC12CC3CC(CC(C3)C1)C2 [Amantadine hydrochloride],-15.1%
16,CNC(=O)c1ccc(N2C(=S)N(c3ccc(C#N)c(C(F)(F)F)c3)C(=O)C2(C)C)cc1F [Enzalutamide],-37%
17,CC1=NN(c2ccc(C)c(C)c2)C(=O)/C1=N/Nc1cccc(-c2cccc(C(=O)O)c2)c1O [Eltrombopag olamine],-17.2%
18,CNC(=O)c1ccc(N2C(=S)N(c3ccc(C#N)c(C(F)(F)F)c3)C(=O)C23CCC3)cc1F [RD-162],-28.5%
19,Clc1ccc(Nc2nnc(Cc3ccncc3)c3ccccc23)cc1 [Vatalanib],-27.3%

row,SMILES,efficacy
1,CCc1ccc(/C=C2/SC(=S)NC2=O)cc1,-29%
2,CC1=NN(c2ccc(C(=O)O)cc2)C(=O)/C1=C/c1ccc(-c2cc(C)c(C)cc2[N+](=O)[O-])o1 [C-646],-21%
3,C[C@H]1CNCCCN1[S+](=O)([O-])c1cccc2cncc(F)c12 [Ripasudil],-11%
4,Cc1cc2c(cc1CC(=O)c1sccc1[S+](=O)([O-])Nc1onc(C)c1Cl)OCO2 [Sitaxentan],-43.1%
5,Cc1cc(O)cc2c1[C@]1(C)CC[C@H]3C(C)(C)CCC[C@]3(C)[C@H]1C2 [AQX-MN-100],19.8%
6,C\C1=C(\SSC1=S)C2=CN=CC=N2 [Oltipraz],-26.5%
7,O=C(O)Cn1nnc(-c2cc(N3CCC(Oc4cc(F)ccc4Br)CC3)no2)n1 [MK-8245],-19.9%
8,Cn1c(/C=C/CO)c(CO)c2c1C(=O)C=C(N1CC1)C2=O [Apaziquone],-8.27%
9,COc1cc([C@@H](CC(=O)O)c2ccc(C)c(CN3C[C@@H](C)Oc4ccccc4[S+]3(=O)[O-])c2)cc2nnn(C)c12 [KI-696],-21.8%
10,O=C(Nc1cc(Cl)cc2c1[nH]c1cnccc12)c1cccnc1 [PS-1145],18.5%
11,O=C(O)c1ccc(CCCc2ccc(OCCc3ccc(F)cc3)cc2)o1 [D-942],-66.5%
12,CCC[C@H](N[C@@H](C)C(=O)N1[C@H](C(=O)O)C[C@@H]2CCCC[C@@H]21)C(=O)OCC [Perindopril],9%
13,N[S+](=O)([O-])NCCNc1nonc1/C(=N/O)Nc1ccc(F)c(Br)c1 [Epacadostat],-25.2%
14,O=P(O)(O)C(O)(Cc1cccnc1)P(=O)(O)[O][Na] (stereo not drawn) [Risedronate sodium],-16.1%
15,CC[S+](=O)([O-])N1CCN(c2ccc(Nc3ncc(C(N)=O)c(NC4CC4)n3)cc2)CC1 [Cerdulatinib],-88.9%
16,Cn1cc(-c2nc(N[C@@H]3CCCC[C@@H]3N)c(F)c3c2C(=O)NC3)cn1 [TAK-659],-31.1%
17,Cn1c(CNc2ccc(C(=N)N)cc2)nc2cc(C(=O)N(CCC(=O)O)c3ccccn3)ccc21 [Dabigatran],-8.84%
18,OC(=O)\C1=C\N(C2=CC=C(F)C=C2)C3=C(C=C(F)C(=C3)N4CCNCC4)C1=O [Sarafloxacin hydrochloride],14%
19,COC1=C(F)C(=CC=C1)C/2=C(C)/N(CC3=C(F)C=CC=C3C(F)(F)F)C(=O)N(C[C@H](NCCCC(O)=O)C4=CC=CC=C4)C2=O [Elagolix],-32.8% and -32.2%
